US9802943B2, “HIV inhibiting bicyclic pyrimidine derivatives” (Janssen Sciences Ireland UC, priority 2004, dated 2017)

Key:
[1] = test system: Strain G (mutations L100I, K103N, Y181C, V179I E138G L214F, V278V/I and A327A/V in HIV reverse transcriptase); assay: cellular antiviral assay, HIV mutant strain G; type: cell-based; details: for EC50: Human immunodeficiency virus 1, read-out: pEC50 G (converted)
Experimental: (§1) Because of the increasing emergence of drug resistant HIV strains, the present compounds were tested for their potency against clinically isolated HIV strains harboring several mutations. These mutations are associated with resistance to reverse transcriptase inhibitors and result in viruses that show various degrees of phenotypic cross-resistance to the currently commercially available drugs such as for instance AZT and delavirdine.
(§2) The antiviral activity of the compound of the present invention has been evaluated in the presence of wild type HIV and HIV mutants bearing mutations at the reverse transcriptase gene. The activity of the compounds is evaluated using a cellular assay and the residual activity is expressed in pEC50 values. The columns IIIB and A-G in the table list the pEC50 values against various strains IIIB, A-G. • Strain IIIB is wild type HIV-LAI strain • Strain A contains mutation Y181C in HIV reverse transcriptase, • Strain B contains mutation K103N in HIV reverse transcriptase, • Strain C contains mutation L100I in HIV reverse transcriptase, • Strain D contains mutation Y188L in HIV reverse transcriptase, • Strain E contains mutations L100I and K103N in HIV reverse transcriptase, • Strain F contains mutations K103N and Y181C in HIV reverse transcriptase, and • Strain G contains mutations L100I, K103N, Y181C, V179I E138G L214F, V278V/I • and A327A/V in HIV reverse transcriptase.

[2] = test system: Strain A (mutation Y181C in HIV reverse transcriptase); assay: cellular antiviral assay, HIV mutant strain A; type: cell-based; details: for EC50: Human immunodeficiency virus 1, read-out: pEC50 A (converted)
Experimental: as §1, §2

[3] = test system: Strain E (mutations L100I and K103N in HIV reverse transcriptase); assay: cellular antiviral assay, HIV mutant strain E; type: cell-based; details: for EC50: Human immunodeficiency virus 1, read-out: pEC50 E (converted)
Experimental: as §1, §2

[4] = test system: Strain IIIB (wild type HIV-LAI strain); assay: cellular antiviral assay, wild type HIV; type: cell-based; details: for EC50: Human immunodeficiency virus 1, IIIB, read-out: pEC50 IIIB (converted)
Experimental: as §1, §2

[5] = test system: Strain B (mutation K103N in HIV reverse transcriptase); assay: cellular antiviral assay, HIV mutant strain B; type: cell-based; details: for EC50: Human immunodeficiency virus 1, read-out: pEC50 B (converted)
Experimental: as §1, §2

[6] = test system: Strain F (mutations K103N and Y181C in HIV reverse transcriptase); assay: cellular antiviral assay, HIV mutant strain F; type: cell-based; details: for EC50: Human immunodeficiency virus 1, read-out: pEC50 F (converted)
Experimental: as §1, §2

[7] = test system: Strain D (mutation Y188L in HIV reverse transcriptase); assay: cellular antiviral assay, HIV mutant strain D; type: cell-based; details: for EC50: Human immunodeficiency virus 1, read-out: pEC50 D (converted)
Experimental: as §1, §2

[8] = test system: Strain C (mutation L100I in HIV reverse transcriptase); assay: cellular antiviral assay, HIV mutant strain C; type: cell-based; details: for EC50: Human immunodeficiency virus 1, read-out: pEC50 C (converted)
Experimental: as §1, §2

SMILES	EC50 [1] [nM]	EC50 [2] [nM]	EC50 [3] [nM]	EC50 [4] [nM]	EC50 [5] [nM]	melting point [°C]	EC50 [6] [nM]	EC50 [7] [nM]	EC50 [8] [nM]	pEC50 G ([1]; strain G, L100I, K103N, Y181C, V179I E138G L214F, V278V/I and A327A/V)	pEC50 A ([2]; strain A, Y181C)	pEC50 E ([3]; strain E, L100I and K103N)	pEC50 IIIB ([4]; strain IIIB, wild type HIV-LAI)	pEC50 B ([5]; strain B, K103N)	pEC50 F ([6]; strain F, K103N and Y181C)	pEC50 D ([7]; strain D, Y188L)	pEC50 C ([8]; strain C, L100I)
Cc1cc(/C=C/C#N)cc(C)c1-n1cnc2cnc(Nc3ccc(C#N)cc3)nc21 [Compound 20]	2000	2.51	7.94	0.2	0.631	> 250	39.8	15.8	0.631								
Cc1cc(/C=C/C#N)cc(C)c1-n1ccc2c(C)nc(Nc3ccc(C#N)cc3)nc21 [Compound 28]										5.7	7.9	8.5	8.5	8.5	7.8	7.7	8.6
Cc1cc(/C=C/C#N)cc(C)c1-n1c(=S)[nH]c2cnc(Nc3ccc(C#N)cc3)nc21 [Compound 31]	15800	12.6	398	1	2.51	> 250	39.8	79.4	2.51								
CCOC(=O)c1cc(C)c(N2CCc3c(C)nc(Nc4ccc(C#N)cc4)nc32)c(C)c1 [Compound 33]	12600	2510	3980	50.1	126	92	3160	631	794								
C/C(C#N)=C\c1cc(C)c(N2CCc3c(C)nc(Nc4ccc(C#N)cc4)nc32)c(C)c1 [Compound 34]	3980	15.8	15.8	2	2.51	105	20	20	3.98								
